Assay results: patent US20230241000A1, “GSK3 INHIBITOR-LOADED NANO FORMULATIONS AS A CANCER IMMUNOTHERAPEUTIC” (The Regents of the University of California, priority 2020, published 2023)
Entries after “also recorded” stand apart in the source; their conditions may differ. Where two headings read alike, the source gives them in different places. Blank lines part the entries; values can stand above or below the molecule they belong to.

Tests used:
[1] = Remote loading of GSK3 inhibitors into silicasomes: encapsulation efficiency and loading capacity; type: physicochemical; details: for encapsulation efficiency in silicasomes (in words): remote loading at 5, 10 or 20 feed weight %
Experimental: The overall scheme for the synthesis of silicasome carriers to deliver GSK3 inhibitors is outlined in FIG. 3. Briefly, a large batch (i.e. 120 g) synthesis of bare particles was carried out as previously, yielding ˜70 nm MSNPs (FIG. 3, panel A) (22). […] 20 mg soaked-in MSNPs were then used together with an ethanol suspended lipid solution, comprised of a mixture of 60 mg DSPC:Cholesterol:PE-PEG2000 (molar ratio of 6:4:0.3), for coating with a lipid bilayer by a flow through sonication procedure (FIG. 3, panel B). Following the removal of the non-encapsulated trapping agent, AZD2858, AZD1080, LY2090314, and 1-Azakenpaullone were dissolved in 0.9% saline and incubated with the silicasome carrier to assess the loading capacity in response to different feed weight percentages (FIG. 11).
Four GSK3 inhibitor-laden silicasome formulations were analyzed to assess encapsulation efficiency and loading capacity. 100 μL of the silicasomes suspension at 10 mg/mL in 0.9% NaCl (1 mg silicasomes) was added to AZD1080, AZD2858, LY2090314, and 1-azakenpaullone solutions, which were prepared by adding 50, 100 or 200 μg of each inhibitor to 900 μL water. These drug mass quantities provided feed weight percentages of 5, 10, and 20%, in comparison to the silicasome mass. Following execution of the remote loading procedure as detailed above, the crude solutions were used to assess absorbance in a glass bottom 96-well plate (Total Drug Absorbance). Silicasomes were centrifuged at 21,000×g for 15 minutes to pellet the particles. After removal of the supernatant, the silicasomes were re-suspended in aa fresh 0.9% NaCl solution. This was repeated three times to remove any unloaded inhibitor. The silicasome solution was then sampled and absorbance was measured to determine Loaded Drug Absorbance. Concentration-matched unloaded ‘blank’ silicasomes also had absorbance measured (Silicasome Blank Absorbance). Encapsulation efficiency was calculated by the following formula: […]
All measurements were taken using a SpectraMax M5 plate reader (Molecular Devices). All solutions were diluted 1/10 in 0.9% NaCl solution prior to absorbance reads. The absorbances used for each compound were: 418 nm for AZD1080, 383 nm for AZD2858, 213 nm for LY2090314, and 334 nm for 1-azakenpaullone.

GSK3 = details: cited from earlier work
Pdcd1 expression = test: RT-qPCR of Pdcd1 in anti-CD3 activated primary murine T-cells; type: cell-based, C57BL/6 mouse; details: 10 μM, 72 hours, normalized against Gapdh
Experimental: (§1) This is compatible with the translational expression of T-bet, a transcription factor that interferes in PD-1 expression (FIG. 1, panel B).
(§2) Wells of a 96-well tissue culture plate were coated with anti-mouse CD3 antibody (Ultra-LEAF, Biolegend). 7.5 μL of 1 mg/mL antibody solution was diluted in 1 mL of 1×PBS, before 50 μL of the dilution was added to each plate well for 2 hours at 37° C. The wells were then thoroughly washed 3× with 1×PBS.
(§3) T-cells were extracted from C57BL/6 mouse spleens, using a standard procedure with minor modifications (71). Two mouse spleens were mechanically disrupted and the released cells were passed through a 70 μm filter. Red blood cells were lysed using RBC lysis buffer (eBioscience) at 4° C. for 5 minutes. 10 mL of 1×PBS was added to stop the lysis process, following which cells were pelleted at 300×g for 5 minutes. […]
(§4) Cells were collected and RNA was extracted using Direct-zol RNA MiniPrep Plus kits (Zymo), as per the manufacturer's instructions. Extracted RNA was converted into cDNA using SuperScript III First-Strand Synthesis System kits (Invitrogen). cDNA from treated T-cells was analyzed by RT-PCR using a LightCycler 480 instrument (Roche) and the LightCycler 480 SYBR Green I Master kit (Roche), per manufacturer's instructions. cDNA was analyzed using forward and reverse primers for Pdcd1, Tbx21, and Gapdh as a control, as described previously (10, 14). […]

Tbx21 expression = test: RT-qPCR of Tbx21 in anti-CD3 activated primary murine T-cells; type: cell-based, C57BL/6 mouse; details: 10 μM, 72 hours, normalized against Gapdh
Experimental: as §1, §2, §3, §4

MC38 colon cancer = test: MC38 syngeneic colon cancer model, subcutaneous tumor growth; type: in vivo, C57BL/6 mice; details: MC38; three administrations; n=15 per group
Experimental: Treatment was repeated every three days for a total of three administrations. Mice were sacrificed four days after the final treatment. The study was executed as two separate experiments, using animal group sizes of n=6 and n=9, respectively. […] The first set of analyses was performed on the tumor volume growth curves (FIG. 5, panel A), impact on final tumor volumes (FIG. 5, panel B) and tumor weight (FIG. 5, panel C) at the time of sacrifice.
MC38 cells, stably transfected with a luciferase vector, were inoculated into the right flank of C57BL/6 mice, using 0.7×10^6 cells in 40% Matrigel 1×PBS solution. Tumors were allowed to grow to a size of ˜50 mm^3 prior to the initiation of treatment, approximately 14 days after initial inoculation. Mice with outlier tumor sizes (either too small or too large) were excluded from further study. The remaining animals were randomly assigned to the different treatment groups. Mice were treated with three injections, set three days apart, and were sacrificed 4 days after the final treatment administration. […] Two separate experiments were performed, the first with n=6 mice per group and the second with n=9 animals.

[2] = test system: CD8+ T-cells in MC38 tumors; test: Flow cytometry of tumor-infiltrating CD8+ T-cells in MC38 tumors; type: in vivo, C57BL/6 mice
Source text: In order to address the change in the immunological landscape with treatment, we asked whether sAZD1080 could impact the immune parameters that underpin treatment efficacy for immune checkpoint blocking antibodies. These include the CD8^+ cell number, the abundance of PD-1 expression on these cells, perforin release and the generation of cancer cell death, as reflected by activated caspase 3. For the first analysis, tumor cell digests were used to assess the number of CD8^+/CD107a^+/granzyme B^+ lymphocytes by flow cytometry (14, 30). […] In order to assess the status of PD-1 expression on CD8+ cells, flow cytometry was used to assess the % of […] cells in the tumor digests (14, 31).
Tumors were harvested from MC38 mice after sacrifice. Tumors larger than 100 mm^3 were divided in two, with one half preserved for histology and the other half used to conduct flow cytometry. To prepare samples for flow cytometry, tumor chunks of 2-3 mm^3 were incubated in an enzyme cocktail (1 mg/mL collagenase type IV, 2000 U DNase type IV, 0.1 mg/mL hyaluronidase type V in 1×HBSS) for 1 hour, and the digests passed through a 70 μm nylon filter. Cells were pelleted and washed in HBSS.
Cells were diluted in cell staining buffer, pelleted by centrifuging at 350×g for 5 minutes, and washed twice. […]

T-bet = details: T-cells; literature (10, 13, 14); cited from earlier work
[3] = Phase 2 candidate, trial abandoned; literature (54); cited from earlier work
[4] = values provided by chemical vendors (Cayman Chemical, Selleck Chemicals)

encapsulation efficiency in silicasomes (in words) [1]: moderate efficiency
Molecule: CN1CCN(S(=O)(=O)c2ccc(-c3cnc(N)c(C(=O)Nc4cccnc4)n3)cc2)CC1 [AZD2858]
solubility during remote loading (in words) ([1]; dissolved in 0.9% saline, incubated with silicasome carrier, feed weight %): precipitated; also recorded: poor solubility

Molecule: Indirubin-3′-monoxime
IC50 (GSK3; [4]): 0.022 µM

Molecule: O=C1NC(=O)C(c2ccccc2[N+](=O)[O-])=C1Nc1ccc(O)c(Cl)c1 [SB415286]
reduction in Pdcd1 mRNA expression (Pdcd1 expression): ~2.2 fold | Tbx21 mRNA expression (Tbx21 expression): increased | number of tumor-free animals at time of sacrifice (out of 15) (MC38 colon cancer): 1/15 | % of CD8/PD-1+ cells in the tumor digests [2]: did not impact | expression of T-bet (T-bet): increase

Molecule: O=C1Cc2c([nH]c3ccc(Br)cc23)-c2ncccc2N1 [1-Azakenpaullone]
encapsulation efficiency in silicasomes (in words) [1]: comparatively low

Molecule: CHIR98014
IC50 (GSK3): 0.00058 µM

Molecule: O=C1NC(=O)C(c2cnc3ccccn23)=C1c1cn2c3c(cc(F)cc13)CN(C(=O)N1CCCCC1)CC2 [LY2090314]
encapsulation efficiency in silicasomes (in words) [1]: moderate efficiency | IC50 (GSK3; [4]): 0.0009 µM | PK and bioavailability in clinical trial [3]: poor PK and drug bioavailability

Molecule: Cc1[nH]c2ccccc2c1C1=C(NCCc2ccc(F)cc2)C(=O)N(C)C1=O [IM-12]
IC50 (GSK3; [4]): 0.053 µM

Molecule: O=c1cc(-c2ccc(O)c(O)c2O)oc2ccccc12 [2-D08]
IC50 (GSK3; [4]): 0.011 µM

Molecule: BIO-acetoxime
IC50 (GSK3; [4]): 0.01 µM

Molecule: Nc1cccc(-c2cc3c(Oc4cccc(O)c4)ncnc3[nH]2)c1 [TWS119]
IC50 (GSK3; [4]): 0.04 µM
